In ChEMBL document CHEMBL4342448, “Antcamphorols A-K, Cytotoxic and ROS Scavenging Triterpenoids from Antrodia camphorata” (J Nat Prod, 2020) one finds IC50 and Activity data, which are given here for 24 compounds.

One data set relates to MCF7. As to the kind of experiment: Cytotoxicity against human MCF7 cells incubated for 24 hrs by MTT assay. The class given is functional, cell-based. The note with it: MCF7, 24 h.
The next data set concerns U-251. As to the kind of experiment: Cytotoxicity against human U251 cells incubated for 24 hrs by MTT assay. Type of data set: functional, cell-based. The note with it: U-251, 24 h.
For another data set, the system named is L02. As to the kind of experiment: Cytotoxicity against human L02 cells incubated for 24 hrs by MTT assay. The class given is cell-based. The following applies: l02, 24 h.
For another data set, the system named is SW480. As to the kind of experiment: Cytotoxicity against human SW480 cells incubated for 24 hrs by MTT assay. The class given is functional, cell-based. The note with it: SW480, 24 h.
The test system of data set [1] is HUVEC. As to the kind of experiment: Induction of ROS scavenging activity in HUVEC assessed as reduction in high glucose-induced intracellular ROS level at 5 uM incubated for 6 hrs by DCFH-DA/Hoechst 33342 staining based assay relative to control. The arrangement: scale not given: the % may be the effect or the level left. The class given is functional, Homo sapiens.

The subject of data set [2] is HUVEC. In words: Induction of ROS scavenging activity in HUVEC assessed as reduction in high glucose-induced intracellular ROS level at 20 uM incubated for 6 hrs by DCFH-DA/Hoechst 33342 staining based assay relative to control. The class given is functional, Homo sapiens. The arrangement: scale not given: the % may be the effect or the level left.

On to `CCc1c2c(nc3ccc(OC(=O)N4CCC(N5CCCCC5)CC4)cc13)-c1cc3c(c(=O)n1C2)COC(=O)[C@]3(O)CC` [IRINOTECAN], for which half-maximal inhibition in the data set on MCF7 (IC50) was put at 0.8 µM.

The compound `Cn1nnc2c(C(N)=O)ncn2c1=O` [TEMOZOLOMIDE] came in with an IC50 in the data set on U-251 of 36.4 µM.

With `C=C(CC[C@@H](C)[C@H]1CC[C@H]2C3=C(C(=O)C[C@]12C)[C@@]1(C)CCC(=O)[C@@H](C)[C@@H]1C[C@@H]3O)[C@@H](C)C(=O)O`, the IC50 with MCF7, in the data set with U-251 and in the data set with SW480 was greater than 100 µM throughout. For the same compound, the Activity result with L02 is reported as “Non-Toxic”.

In the case of `C=C(CC[C@@H](C(=O)O)[C@H]1CC[C@@]2(C)C3=C(CC[C@]12C)[C@@]1(C)CC[C@H](O)C(C)(C)[C@@H]1CC3)C(C)C` [EBURICOIC ACID], the half-maximal inhibitory concentration (IC50) with MCF7, in the data set on U-251 and in the data set on SW480 was greater than 100 µM throughout. For the same compound, the Activity result in the data set with L02 was “Non-Toxic”.

`C=C1CC[C@H](O)C/C1=C/C=C1\CCC[C@]2(C)[C@@H]([C@H](C)CCCC(C)C)CC[C@@H]12` [CHOLECALCIFEROL]: the Activity with HUVEC [1] is on record as 65.4%.

For `C/C=C(/CO)CC[C@@H](C)[C@H]1CC[C@H]2C3=C(C(=O)C[C@]12C)[C@@]1(C)CC[C@@H](O)[C@](C)(O)[C@@H]1C[C@@H]3O`, the concentration for half-maximal inhibition (IC50) in the data set on MCF7 was greater than 100 µM; in the data set on U-251 it was 10.4 µM; in the data set with SW480, greater than 100 µM. Further, the Activity entry in the data set on L02 was “Non-Toxic”.

Turning to `C=C(CC[C@@H](C)[C@H]1CC[C@H]2C3=C(C(=O)C[C@]12C)[C@@]1(C)CCC(=O)[C@@H](C)[C@@H]1C[C@@H]3O)[C@H](C)C(=O)O`, the IC50 in the data set on MCF7, in the data set on U-251 and in the data set on SW480 was greater than 100 µM in each case. The Activity entry in the data set on L02 is given as “Non-Toxic”.

Take `C=C(CC[C@@H](C)[C@H]1CC[C@H]2C3=CC[C@H]4[C@H](C)C(=O)CC[C@]4(C)C3=CC[C@]12C)C(C)C`: the IC50 in the data set with MCF7, in the data set with U-251 and with SW480 was greater than 100 µM in each case. Also, the Activity result was “Non-Toxic” with L02 and 63.9% with HUVEC [2].

For `C=C(CC[C@@H](C(=O)O)[C@H]1C[C@H](O)[C@@]2(C)C3=C(CC[C@]12C)[C@@]1(C)CC[C@H](O)C(C)(C)[C@@H]1CC3)C(C)C` [SULFURENIC ACID], the IC50 in the data set on MCF7, with U-251 and with SW480 was greater than 100 µM in each case. The Activity entry with L02 is listed as “Non-Toxic”.

With `C/C=C(\CO)CC[C@@H](C)[C@H]1CC[C@H]2C3=C(C(=O)C[C@]12C)[C@@]1(C)CC[C@@H](O)[C@](C)(O)[C@@H]1C[C@@H]3O`, the IC50 is greater than 100 µM in the data set on MCF7, 9.2 µM with U-251 and greater than 100 µM in the data set on SW480. Moreover, the Activity entry with L02 was “Non-Toxic”.

As for `CC1=C2C3=C(CC[C@]2(C)[C@@H]([C@H]2CC[C@](CO)(C(C)C)OC2)C1)[C@@]1(C)CC[C@H](O)C(C)(C)[C@@H]1CC3`, the IC50 in the data set on MCF7, in the data set with U-251 and in the data set on SW480 was greater than 100 µM in each case. Besides, in the data set on L02, the Activity result was “Non-Toxic”.

As to `C=C(CC[C@@H](C(=O)O)[C@H]1CC[C@@]2(C)C3=CC[C@H]4C(C)(C)[C@@H](O)CC[C@]4(C)C3=CC[C@]12C)C(C)C` [DEHYDROEBURICOIC ACID], the IC50 in the data set on MCF7, in the data set with U-251 and in the data set on SW480 was greater than 100 µM each time. Further, the values for the Activity result with L02 and with HUVEC [2] were “Non-Toxic” and 69.8%, respectively.

For the compound `C=C(CC[C@@H](C)[C@H]1CC[C@H]2C3=CC[C@H]4[C@H](C)C(=O)CC[C@]4(C)C3=C[C@@H](O)[C@]12C)C(C)C`, the IC50 with MCF7, in the data set with U-251 and with SW480 was greater than 100 µM in each case. Besides, in the data set on L02, the Activity entry is listed as “Non-Toxic”.

For the compound `C=C(CC[C@@H](C)[C@H]1CC[C@H]2C3=CC[C@H]4[C@H](C)C(=O)CC[C@]4(C)C3=C[C@H](O)[C@]12C)C(C)C`, the IC50 in the data set with MCF7, in the data set with U-251 and in the data set with SW480 was greater than 100 µM in each case. Also, the Activity entry is recorded as “Non-Toxic” in the data set with L02 and 69.9% with HUVEC [2].

Turning to `C=C(CC[C@@H](C)[C@H]1CC[C@H]2C3=C(C(=O)C[C@]12C)[C@@]1(C)CC[C@@H](O)[C@](C)(O)[C@@H]1C[C@@H]3O)[C@@H](C)C(=O)O`, the IC50 in the data set with MCF7, in the data set on U-251 and with SW480 was greater than 100 µM throughout. For the same compound, the Activity entry in the data set on L02 is “Non-Toxic”.

Take `C=C(CC[C@@H](C)[C@H]1CC[C@H]2C3=C(C(=O)[C@H](O)[C@]12C)[C@@]1(C)CC[C@@H](O)[C@@H](C)[C@@H]1CC3=O)[C@H](C)C(=O)O`: the IC50 in the data set with MCF7, in the data set with U-251 and in the data set with SW480 was greater than 100 µM throughout. For the same compound, the Activity result in the data set with L02 is listed as “Non-Toxic”.

On to `C=C(CC[C@@H](C)[C@H]1CC[C@H]2C3=CC[C@H]4[C@H](C)[C@@H](O)CC[C@]4(C)C3=C[C@@H](O)[C@]12C)C(C)C`, for which the values for the IC50 in the data set on MCF7, in the data set on U-251 and with SW480 were 8.1 µM, 15.6 µM and 16.4 µM, respectively. In addition, the Activity entry in the data set on L02 was “Non-Toxic”.

For `C=C(CC[C@@H](C)[C@H]1CC[C@H]2C3=C(C(=O)C[C@]12C)[C@@]1(C)CC[C@@H](O)[C@](C)(O)[C@@H]1C[C@@H]3O)[C@H](C)C(=O)O`, the IC50 with MCF7, in the data set with U-251 and with SW480 was greater than 100 µM throughout. In addition, the Activity result in the data set with L02 was “Non-Toxic”.

As to `C=C(CC[C@@H](C)[C@H]1CC[C@H]2C3=C(C(=O)C[C@]12C)[C@@]1(C)CC[C@@H](O)[C@H](O)[C@@H]1C[C@@H]3O)[C@@H](C)C(=O)O`, the IC50 in the data set on MCF7, with U-251 and in the data set on SW480 was greater than 100 µM in each case. Moreover, the Activity entry in the data set on L02 was “Non-Toxic”.

For the compound `C=C(CC[C@@H](C)[C@H]1CC[C@H]2C3=C(C(=O)C[C@]12C)[C@@]1(C)CCC(=O)[C@@H](C)[C@@H]1C[C@H]3O)C(C)C`, the IC50 in the data set on MCF7, in the data set on U-251 and in the data set on SW480 was greater than 100 µM each time. Also, the Activity entry is “Non-Toxic” in the data set with L02 and 66.7% in the data set on HUVEC [2].

In the case of `C=C(CC[C@@H](C(=O)O)[C@H]1C[C@H](O)[C@@]2(C)C3=CC[C@H]4C(C)(C)[C@@H](O)CC[C@]4(C)C3=CC[C@]12C)C(C)C`, the IC50 with MCF7, in the data set with U-251 and in the data set on SW480 was greater than 100 µM throughout. In addition, the Activity entry in the data set with L02 is recorded as “Non-Toxic”.

With `C=C(CC[C@@H](C)[C@H]1CC[C@H]2C3=C(C(=O)[C@H](O)[C@]12C)[C@@]1(C)CC[C@@H](O)[C@@H](C)[C@@H]1CC3=O)[C@@H](C)C(=O)O`, the IC50 in the data set on MCF7, with U-251 and in the data set with SW480 was greater than 100 µM in each case. In addition, the values for the Activity result with L02 and with HUVEC [2] were “Non-Toxic” and 70.5%, respectively.

Consider `C=C(CC[C@@H](C)[C@H]1CC[C@H]2C3=C(C(=O)C[C@]12C)[C@@]1(C)CC[C@@H](O)[C@H](O)[C@@H]1C[C@@H]3O)[C@H](C)C(=O)O`, for which the IC50 in the data set with MCF7, in the data set on U-251 and in the data set with SW480 was greater than 100 µM in each case. Moreover, the Activity result in the data set on L02 is “Non-Toxic”.

Regarding `C=C(CC[C@@H](C)[C@H]1CC[C@@]2(O)C3=C(C(=O)C[C@]12C)[C@@]1(C)CCC(=O)[C@@H](C)[C@@H]1CC3)C(C)C`, the IC50 in the data set on MCF7, with U-251 and in the data set on SW480 was greater than 100 µM in each case. Further, in the data set with L02, the Activity entry is on record as “Non-Toxic”.
